Measurements published in PubChem BioAssay AID256 (DTP/NCI, 2004).
Several values for one entry are separate records, joined by “and”; a condition that tells them apart may be missing. Equal entries are not always repeated. Inconclusive results and toxic doses are left out.

Tested on: CD2F1 mice, L1210 leukemia ip, survival T/C
Assay: NCI In Vivo Anticancer Drug Screen. Data for tumor model L1210 Leukemia (intraperitoneal) in CD2F1 (CDF1) mice
Conditions: higher = longer survival
Procedure, shortened: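 Vehicle-treated tumor-bearing mice served as controls (C) for compound-treated mice (T). Reported figure is T divided by C.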

[1] = endpoint: mean survival time, dose: 100.0 mg/kg/injection, schedule: Q01DX009 (ip), vehicle: saline with Tween-80
[2] = endpoint: mean survival time, dose: 100.0 mg/kg/injection, schedule: Q04DX003 (ip), vehicle: saline with Tween-80
[3] = endpoint: mean survival time, dose: 200.0 mg/kg/injection, schedule: Q01DX009 (ip), vehicle: saline with Tween-80
[4] = endpoint: mean survival time, dose: 200.0 mg/kg/injection, schedule: Q04DX003 (ip), vehicle: saline with Tween-80
[5] = endpoint: mean survival time, dose: 400.0 mg/kg/injection, schedule: Q04DX003 (ip), vehicle: saline with Tween-80
[6] = endpoint: mean survival time, dose: 100.0 mg/kg/injection, schedule: Q04DX002 (ip), vehicle: saline with Tween-80
[7] = endpoint: mean survival time, dose: 200.0 mg/kg/injection, schedule: Q04DX002 (ip), vehicle: saline with Tween-80
[8] = endpoint: mean survival time, dose: 400.0 mg/kg/injection, schedule: Q04DX002 (ip), vehicle: saline with Tween-80
[9] = endpoint: mean survival time, dose: 400.0 mg/kg/injection, schedule: Q01DX009 (ip), vehicle: saline with Tween-80

C#CCOCCC(C(=O)OCC)C(=O)OCC
T/C (endpoint: mean survival time, dose: 100.0 mg/kg/injection, schedule: Q04DX003 (ip), vehicle: acetone): 108 % of control | T/C (endpoint: mean survival time, dose: 200.0 mg/kg/injection, schedule: Q04DX003 (ip), vehicle: acetone): 103 % of control | T/C (endpoint: mean survival time, dose: 400.0 mg/kg/injection, schedule: Q04DX003 (ip), vehicle: acetone): 110 % of control

C=CCSc1cccc2ccccc12
T/C [1]: 90 % of control | T/C [2]: 104 % of control | T/C [3]: 96 % of control | T/C [4]: 104 % of control | T/C [5]: 106 % of control

CCC(CC)(CC)CCS(=O)[O-].[C-]#[O+].[C-]#[O+].[Fe+6].[c-]1[c-][c-][cH-][c-]1
T/C (endpoint: mean survival time, dose: 50.0 mg/kg/injection, schedule: Q04DX002 (ip), vehicle: saline with Tween-80): 93 % of control | T/C [6]: 93 % of control | T/C [7]: 104 % of control

CC(=O)NC(C)(NC(=O)CCl)C(=O)O (centres undefined)
T/C [6]: 100 % of control | T/C [7]: 96 % of control | T/C [8]: 93 % of control

O=C(Cn1ccc(=O)[nH]c1=O)c1c[nH]c2ccccc12
T/C [6]: 108 % of control | T/C [7]: 108 % of control | T/C [8]: 104 % of control

c1ccc2c(c1)Sc1cnccc1N2CC1CO1 (centres undefined)
T/C (endpoint: mean survival time, dose: 100.0 mg/kg/injection, schedule: Q01DX009 (ip), vehicle: saline): 102 % of control | T/C (endpoint: mean survival time, dose: 200.0 mg/kg/injection, schedule: Q01DX009 (ip), vehicle: saline): 102 % of control | T/C (endpoint: mean survival time, dose: 400.0 mg/kg/injection, schedule: Q01DX009 (ip), vehicle: saline): 104 % of control

O=C1OC(=O)C2C3CC(C4OC34)C12 (centres undefined)
T/C [1]: 103 % of control | T/C [3]: 97 % of control | T/C [9]: 87 % of control

Nc1nc2ncc(CNc3ccc(C(=O)NC(CCC(=O)O)C(=O)O)cc3)nc2c(=O)[nH]1.[NH-]C1CCCCC1[NH-].[Pt+2] (centres undefined)
T/C (endpoint: median survival time, dose: 3.12 mg/kg/injection, schedule: Q04DX003 (ip), vehicle: saline): 102 % of control and 104 % of control | T/C (endpoint: median survival time, dose: 6.25 mg/kg/injection, schedule: Q04DX003 (ip), vehicle: saline): 107 % of control and 108 % of control | T/C (endpoint: median survival time, dose: 12.5 mg/kg/injection, schedule: Q04DX003 (ip), vehicle: saline): 105 % of control | T/C (endpoint: median survival time, dose: 25.0 mg/kg/injection, schedule: Q04DX003 (ip), vehicle: saline): 116 % of control and 108 % of control | T/C (endpoint: median survival time, dose: 50.0 mg/kg/injection, schedule: Q04DX003 (ip), vehicle: saline): 114 % of control and 111 % of control | T/C (endpoint: median survival time, dose: 100.0 mg/kg/injection, schedule: Q04DX003 (ip), vehicle: saline): 113 % of control and 115 % of control | T/C (endpoint: median survival time, dose: 200.0 mg/kg/injection, schedule: Q04DX003 (ip), vehicle: saline): 161 % of control

Nc1ccn(C2OC(C(OC3OC(CO)C(O)C(N)C3O)C(O)C(O)C(O)C(O)CO)C(N)C(O)C2O)c(=O)n1 (centres undefined)
T/C (endpoint: mean survival time, dose: 0.1 mg/kg/injection, schedule: Q01DX005 (ip), vehicle: saline): 104 % of control | T/C (endpoint: mean survival time, dose: 0.2 mg/kg/injection, schedule: Q01DX005 (ip), vehicle: saline): 102 % of control | T/C (endpoint: mean survival time, dose: 0.4 mg/kg/injection, schedule: Q01DX005 (ip), vehicle: saline): 101 % of control

C[C@]12CCCC[C@@H]1CC[C@@H]1[C@@H]2CC[C@]2(C)C(=O)CC[C@@H]12
T/C [2]: 92 % of control | T/C [4]: 91 % of control | T/C [5]: 89 % of control

CC(C)C[CH2][Pb]([Cl])([CH2]CC(C)C)[CH2]CC(C)C
T/C (endpoint: mean survival time, dose: 0.06 mg/kg/injection, schedule: Q01DX009 (ip), vehicle: saline): 97 % of control | T/C (endpoint: mean survival time, dose: 0.12 mg/kg/injection, schedule: Q01DX009 (ip), vehicle: saline): 97 % of control | T/C (endpoint: mean survival time, dose: 0.25 mg/kg/injection, schedule: Q01DX009 (ip), vehicle: saline): 97 % of control | T/C (endpoint: mean survival time, dose: 0.5 mg/kg/injection, schedule: Q01DX009 (ip), vehicle: saline): 100 % of control | T/C (endpoint: mean survival time, dose: 1.0 mg/kg/injection, schedule: Q01DX009 (ip), vehicle: saline): 100 % of control

COC1C(O)C(C)OC(O[C@@H]2C[C@H]3CC[C@@H]4[C@H](CC[C@]5(C)[C@@H](C6=CC(=O)OC6)CC[C@]45O)[C@@]3(C)[C@H](O)C2)C1O (some centres undefined)
T/C (endpoint: mean survival time, dose: 75.0 mg/kg/injection, schedule: Q01DX001 (ip), vehicle: other): 90 % of control | T/C (endpoint: mean survival time, dose: 150.0 mg/kg/injection, schedule: Q01DX001 (ip), vehicle: other): 91 % of control

Cc1ccc(C)c(NC(=O)c2cccc(Cl)c2)c1
T/C [1]: 89 % of control | T/C [2]: 94 % of control | T/C [3]: 94 % of control | T/C [4]: 94 % of control | T/C [9]: 102 % of control | T/C [5]: 94 % of control
